Where two headings read alike, the source gives them in different places.
What was measured:
SARS-CoV-2 3CL protease = SARS-CoV-2 3CL protease (Severe acute respiratory syndrome coronavirus 2, UniProt P0DTD1); test: biochemical; details: 50% SARS-CoV-2 3CL protease inhibitory concentration, read-out: IC50
SARS-CoV-2 = test: microbe, parasite or virus in culture; assay type: cell-based; details: Severe acute respiratory syndrome coronavirus 2, VeroE6/TMPRSS2, 72 h, 50% SARS-CoV-2 infected cell death inhibitory concentration, VeroE6/TMPRSS2 cells, 3 days culture

| SMILES | IC50 (SARS-CoV-2 3CL protease; given as class symbols) | EC50 (SARS-CoV-2; class symbols) | IC50 (SARS-CoV-2 3CL protease; RapidFire MS) | EC50 (SARS-CoV-2; CellTiter-Glo 2.0) |
| --- | --- | --- | --- | --- |
| CNc1nc2ccc(Nc3nc(=O)n(Cc4cc(Cl)c[nH]c4=O)c(=O)n3Cc3cc(F)c(F)c(F)c3)cc2s1 [II-0041] | < 0.1 µM | 1 to 10 µM |  |  |
| Cc1cncc(-n2c(=O)nc(Nc3cc4cn(C)nc4cc3Cl)n(Cc3cc(Cl)c(F)cc3C)c2=O)c1 [II-0043] |  |  | 0.0058 µM | 0.232 µM |
| Cc1cc(F)c(Cl)cc1Cn1c(Nc2cc3cn(C)nc3cc2Cl)nc(=O)n(Cc2ncn(C)n2)c1=O [II-0044] | < 0.1 µM | < 1 µM |  |  |
| Cn1cnc(Cn2c(=O)nc(Nc3cc4cn(C)nc4cc3Cl)n(Cc3cc(F)c(F)c(Cl)c3)c2=O)n1 [II-0045] |  |  | 0.0047 µM | 0.218 µM |
| Cn1cnc(Cn2c(=O)nc(Nc3cc4c(cc3Cl)OCC4)n(Cc3cc(F)c(F)c(Cl)c3)c2=O)n1 [II-0046] | < 0.1 µM | < 1 µM |  |  |
| O=C1CN=CC=C1Cn1c(=O)nc(Nc2cc3c(cc2Cl)OCCC3)n(Cc2cc(F)c(F)cc2F)c1=O [II-0047] | < 0.1 µM | < 1 µM |  |  |
| CNc1nc2cc(Cl)c(Nc3nc(=O)n(Cc4ncn(C)n4)c(=O)n3Cc3cc(F)c(F)cc3F)cc2s1 [II-0048] | < 0.1 µM | < 1 µM |  |  |
| O=c1nc(Nc2cc3c(cc2Cl)OCC3)n(Cc2cc(F)c(F)c(F)c2)c(=O)n1-c1cncc2ccccc12 [II-0049] | < 0.1 µM | < 1 µM |  |  |
| Cn1cnc(Cn2c(=O)nc(Nc3cc4cn(C)nc4cc3Cl)n(Cc3ccc(F)c(Cl)c3)c2=O)n1 [II-0050] | < 0.1 µM | < 1 µM |  |  |
| Cn1cnc(Cn2c(=O)nc(Nc3cc4cn(C)nc4cc3Cl)n(Cc3cc(F)cc(Cl)c3)c2=O)n1 [II-0051] | < 0.1 µM | 1 to 10 µM |  |  |
| Cc1ccc(Cl)cc1Cn1c(Nc2cc3cn(C)nc3cc2Cl)nc(=O)n(Cc2ncn(C)n2)c1=O [II-0052] | < 0.1 µM | 1 to 10 µM |  |  |
| Cc1cncc(-n2c(=O)nc(Nc3cc4cn(C)nc4cc3F)n(Cc3cc(C#N)c(F)cc3Cl)c2=O)c1 [II-0053] | < 0.1 µM | < 1 µM |  |  |
| Cc1cncc(-n2c(=O)nc(Nc3cc4cn(C)nc4cc3F)n(Cc3cc(F)c(F)c(C#N)c3)c2=O)c1 [II-0054] | < 0.1 µM | < 1 µM |  |  |
| Cc1cncc(-n2c(=O)nc(Nc3ccc4nn(CC(F)F)cc4c3)n(Cc3cc(F)c(F)c(C#N)c3)c2=O)c1 [II-0055] |  |  | 0.0045 µM | 0.18 µM |
| Cn1cnc(Cn2c(=O)nc(Nc3cc4oc(N)nc4cc3Cl)n(Cc3cc(Cl)c(F)cc3F)c2=O)n1 [II-0056] | < 0.1 µM | 1 to 10 µM |  |  |
| Cn1cnc(Cn2c(=O)nc(Nc3cc4oc(N)nc4cc3Cl)n(Cc3cc(F)c(F)cc3F)c2=O)n1 [II-0057] | < 0.1 µM | 1 to 10 µM |  |  |
| Cc1cncc(-n2c(=O)nc(Nc3cc4cn(CC(F)F)nc4cc3F)n(Cc3cc(F)c(F)c(Cl)c3)c2=O)c1 [II-0058] | < 0.1 µM | < 1 µM |  |  |
| CNc1nc2cc(Cl)c(Nc3nc(=O)n(Cc4ncn(C)n4)c(=O)n3Cc3cc(F)c(F)c(Cl)c3)cc2o1 [II-0059] | < 0.1 µM | 1 to 10 µM |  |  |
| Cn1cnc(Cn2c(=O)nc(Nc3cc4cn(C)nc4cc3F)n(Cc3cc(F)c(F)c(Cl)c3)c2=O)n1 [II-0060] | < 0.1 µM | 1 to 10 µM |  |  |
| CNc1nc2cc(Cl)c(Nc3nc(=O)n(Cc4ncn(C)n4)c(=O)n3Cc3cc(F)c(F)c(F)c3)cc2o1 [II-0061] | < 0.1 µM | 1 to 10 µM |  |  |

| SMILES | IC50 (SARS-CoV-2 3CL protease; given as class symbols) | EC50 (SARS-CoV-2; class symbols) | IC50 (SARS-CoV-2 3CL protease; RapidFire MS) | EC50 (SARS-CoV-2; CellTiter-Glo 2.0) |
| --- | --- | --- | --- | --- |
| Cn1cnc(Cn2c(=O)nc(Nc3cc4cn(C)nc4cc3F)n(Cc3cc(F)c(F)c(F)c3)c2=O)n1 [II-0064] | < 0.1 µM | 1 to 10 µM |  |  |
| C#Cc1cc(F)c(F)cc1Cn1c(Nc2cc3cn(C)nc3cc2Cl)nc(=O)n(-c2cncc(C)c2)c1=O [II-0065] | < 0.1 µM | < 1 µM |  |  |
| C/C=C/c1cc(F)c(F)cc1Cn1c(Nc2cc3cn(C)nc3cc2Cl)nc(=O)n(-c2cncc(C)c2)c1=O [II-0066] | < 0.1 µM | 1 to 10 µM |  |  |
| C=Cc1cc(F)c(F)cc1Cn1c(Nc2cc3cn(C)nc3cc2Cl)nc(=O)n(-c2cncc(C)c2)c1=O [II-0067] | < 0.1 µM | < 1 µM |  |  |
| CCc1cc(F)c(F)cc1Cn1c(Nc2cc3cn(C)nc3cc2Cl)nc(=O)n(-c2cncc(C)c2)c1=O [II-0068] | < 0.1 µM | < 1 µM |  |  |
| CCCc1cc(F)c(F)cc1Cn1c(Nc2cc3cn(C)nc3cc2Cl)nc(=O)n(-c2cncc(C)c2)c1=O [II-0069] | < 0.1 µM | 1 to 10 µM |  |  |
| Cc1cncc(-n2c(=O)nc(Nc3cc4cn(C)nc4cc3Cl)n(Cc3cc(F)c(F)cc3C#N)c2=O)c1 [II-0070] | < 0.1 µM | 1 to 10 µM |  |  |
| Cc1cncc(-n2c(=O)nc(Nc3cc4cn(C)nc4cc3Cl)n(Cc3cc(C#N)c(F)cc3OCC(C)C)c2=O)c1 [II-0071] | < 0.1 µM | < 1 µM |  |  |
| Cc1cncc(-n2c(=O)nc(Nc3cc4cn(C)nc4cc3Cl)n(Cc3cc(F)c(F)cc3CCC(C)(C)O)c2=O)c1 [II-0073] | < 0.1 µM | 1 to 10 µM |  |  |
| COC(=O)Nc1nc2cc(Cl)c(Nc3nc(=O)n(-c4cncc(C)c4)c(=O)n3Cc3ccc(F)c(C#N)c3)cc2s1 [II-0074] |  |  | 0.0036 µM | 0.248 µM |
| COC(=O)Nc1nc2cc(Cl)c(Nc3nc(=O)n(Cc4ncn(C)n4)c(=O)n3Cc3cc(F)c(F)cc3F)cc2s1 [II-0075] | < 0.1 µM | < 1 µM |  |  |
| Cc1cncc(-n2c(=O)nc(Nc3cc4cn(C)nc4cc3Cl)n(Cc3cc(C#N)ccc3C(F)(F)F)c2=O)c1 [II-0076] | < 0.1 µM | < 1 µM |  |  |
| Cc1cncc(-n2c(=O)nc(Nc3cc4cn(C)nc4cc3Cl)n(Cc3cc(Cl)ccc3C(F)(F)F)c2=O)c1 [II-0077] | < 0.1 µM | < 1 µM |  |  |
| O=c1nc(Nc2cc3cn(CCN4CCOCC4)nc3cc2Cl)n(Cc2cc(F)c(F)cc2F)c(=O)n1-c1cncc2ccccc12 [II-0078] | < 0.1 µM | < 1 µM |  |  |
| COC(=O)Nc1nc2cc(Cl)c(Nc3nc(=O)n(-c4cncc(C)c4)c(=O)n3Cc3cc(Cl)c(F)cn3)cc2s1 [II-0079] | < 0.1 µM | < 1 µM |  |  |
| COC(=O)Nc1nc2cc(Cl)c(Nc3nc(=O)n(Cc4ncn(C)n4)c(=O)n3Cc3cc(Cl)c(F)cn3)cc2s1 [II-0080] | < 0.1 µM | 1 to 10 µM |  |  |
| Cn1cnc(Cn2c(=O)nc(Nc3cc4sc(NCC5CC5)nc4cc3Cl)n(Cc3cc(F)c(F)cc3F)c2=O)n1 [II-0082] | < 0.1 µM | 1 to 10 µM |  |  |
| COc1ccc(Nc2nc(=O)n(Cc3cc(C)n[nH]c3=O)c(=O)n2Cc2cc(F)c(F)c(F)c2)c(Cl)c1 [II-0084] | < 0.1 µM | < 1 µM |  |  |
| Cc1cncc(-n2c(=O)nc(Nc3cc4cn(C)nc4cc3Cl)n(Cc3cc(C#N)c(F)cc3Cl)c2=O)c1 [II-0087] |  |  | 0.0025 µM | 0.069 µM |
| Cn1cnc(Cn2c(=O)nc(Nc3cc4cn(C)nc4cc3Cl)n(Cc3cc(C#N)c(F)cc3Cl)c2=O)n1 [II-0088] | < 0.1 µM | 1 to 10 µM |  |  |

| SMILES | IC50 (SARS-CoV-2 3CL protease; given as class symbols) | EC50 (SARS-CoV-2; class symbols) | IC50 (SARS-CoV-2 3CL protease; RapidFire MS) | EC50 (SARS-CoV-2; CellTiter-Glo 2.0) |
| --- | --- | --- | --- | --- |
| Cc1cncc(-n2c(=O)nc(Nc3cc4cn(CC(F)F)nc4cc3Cl)n(Cc3ccc(F)c(C#N)c3)c2=O)c1 [II-0089] |  |  | 0.0036 µM | 0.182 µM |
| Cc1cncc(-n2c(=O)nc(Nc3cc4cn(CC(F)F)nc4cc3Cl)n(Cc3cc(F)c(F)c(F)c3)c2=O)c1 [II-0090] |  |  | 0.016 µM | 0.355 µM |
| Cc1cncc(-n2c(=O)nc(Nc3cc4cn(C)nc4cc3Cl)n(Cc3cc(C#N)c(F)cc3CCC(C)C)c2=O)c1 [II-0092] | < 0.1 µM | < 1 µM |  |  |
| COc1cc(F)c(C#N)cc1Cn1c(Nc2cc3cn(C)nc3cc2Cl)nc(=O)n(-c2cncc(C)c2)c1=O [II-0093] |  |  | 0.012 µM | 0.487 µM |
| Cc1cncc(-n2c(=O)nc(Nc3cc4cn(C)nc4cc3Cl)n(Cc3cc(F)c(F)cc3Cc3ccccc3)c2=O)c1 [II-0094] | < 0.1 µM | 1 to 10 µM |  |  |
| Cc1ccc(Cl)cc1Cn1c(Nc2cc3c(cc2Cl)nc2n3CCN2)nc(=O)n(-c2cncc(Cl)c2)c1=O [II-0095] | < 0.1 µM | < 1 µM |  |  |
| Cc1cncc(-n2c(=O)nc(Nc3cc4cn(C5CCOCC5)nc4cc3Cl)n(Cc3ccc(F)c(C#N)c3)c2=O)c1 [II-0096] | < 0.1 µM | < 1 µM |  |  |
| Cc1ccc(C#N)cc1Cn1c(Nc2cc3cn(C)nc3cc2F)nc(=O)n(-c2cncc(Cl)c2)c1=O [II-0097] | < 0.1 µM | < 1 µM |  |  |
| Cn1cnc(Cn2c(=O)nc(Nc3cc4cn(C5CCOCC5)nc4cc3Cl)n(Cc3cc(Cl)c(F)cc3F)c2=O)n1 [II-0098] | < 0.1 µM | 1 to 10 µM |  |  |
| CC1(Cn2cc3cc(Nc4nc(=O)n(Cc5ccc[nH]c5=O)c(=O)n4Cc4cc(F)c(F)c(F)c4)c(Cl)cc3n2)COC1 [II-0099] | < 0.1 µM | 1 to 10 µM |  |  |
| Cc1cncc(-n2c(=O)nc(Nc3cc4cn(C[C@H](C)O)nc4cc3Cl)n(Cc3cc(F)c(F)cc3F)c2=O)c1 [II-0100] | < 0.1 µM | < 1 µM |  |  |
| Cc1cncc(-n2c(=O)nc(Nc3cc4cn(C[C@H](C)O)nc4cc3Cl)n(Cc3cc(F)c(F)c(F)c3)c2=O)c1 [II-0101] | < 0.1 µM | < 1 µM |  |  |
| Cn1cnc(Cn2c(=O)nc(Nc3cc4cn(C5CCOCC5)nc4cc3Cl)n(Cc3cc(F)c(F)cc3F)c2=O)n1 [II-0102] | < 0.1 µM | 1 to 10 µM |  |  |
| CNc1nc2cc(Cl)c(Nc3nc(=O)n(Cc4ncn(C)n4)c(=O)n3Cc3cc(Cl)c(F)cc3F)cc2o1 [II-0104] | < 0.1 µM | 1 to 10 µM |  |  |
| Cc1cncc(-n2c(=O)nc(Nc3ccc4nc(C)oc4c3)n(Cc3ccc(F)c(C#N)c3)c2=O)c1 [II-0105] | < 0.1 µM | < 1 µM |  |  |
| Cc1cncc(-n2c(=O)nc(Nc3cc4c(cc3Cl)nc(C(F)F)n4C)n(Cc3ccc(F)c(C#N)c3)c2=O)c1 [II-0106] | < 0.1 µM | 1 to 10 µM |  |  |
| Cc1cncc(-n2c(=O)nc(Nc3cc4oc(C)nc4cc3F)n(Cc3ccc(F)c(C#N)c3)c2=O)c1 [II-0107] | < 0.1 µM | 1 to 10 µM |  |  |
| Cc1cncc(-n2c(=O)nc(Nc3cc4oc(C)nc4cc3Cl)n(Cc3ccc(F)c(C#N)c3)c2=O)c1 [II-0108] | < 0.1 µM | 1 to 10 µM |  |  |
